Laboratory results as given in patent US6169181A, “Compounds useful to treat retroviral infections” (Pharmacia & Upjohn Company, priority 1998, dated 2001).
“And” between values parts separate entries of the source, which are not always exact repeats. Equal entries are not always repeated. Structures can show the parent of a compound that is named as a salt. Where two headings read alike, the source gives them in different places.

Columns and labels:
HIV-1 protease [1] = molecular target: T1, HIV-1 protease (Human immunodeficiency virus type 1 group M subtype B, UniProt P04585); test: biochemical; settings: for inhibition at 0.123 µM / inhibition at 0.37 µM / inhibition at 1.1 µM / inhibition at 3.3 µM / inhibition at 10 µM / inhibition at 30 µM: read-out: Protease % Inhib
Method in brief: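 Percent inhibition came from fluorescence of FITC-tagged cleavage product, separated by filtration from uncleaved substrate captured on streptavidin-coated beads. The enzyme (10 μl of 0.1 μM) and compound acted on a biotin/FITC dual-labelled peptide for one hour at room temperature in the dark. The reaction ran in 0.1 M sodium acetate, pH 5.5, with 1.0 M NaCl and 0.05% NP-40.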

HIV-1 protease [2] = molecular target: T1, HIV-1 protease; test: biochemical
Method in brief: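 Biotinylated, FITC-labelled peptide substrate cleaved in 0.1 M sodium acetate pH 5.5, 1.0 M NaCl, 0.05% NP-40, room temperature. Filtered labelled product read by fluorescence; nonlinear least-squares fit.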

[3] = Table I, read-out: HIV Protease FITC Assay Ki
[4] = Table II, enzyme HIV-1, DOSE 0.123 (unit not given)
[5] = Table II, enzyme HIV-1, DOSE 0.370 (unit not given)
[6] = Table II, enzyme HIV-1, DOSE 1.100 (unit not given)
[7] = Table II, enzyme HIV-1, DOSE 3.300 (unit not given)
[8] = Table II, enzyme HIV-1, DOSE 10.000 (unit not given)
[9] = Table II, enzyme HIV-1, DOSE 30.000 (unit not given)
[10] = Table II, enzyme HIV-1, read-out: FITC KI

Compound | inhibition at 0.123 µM (HIV-1 protease [1]; Table I, Dose 0.123 μM) [%] | inhibition at 0.37 µM (HIV-1 protease [1]; Table I, Dose 0.370 μM) [%] | inhibition at 1.1 µM (HIV-1 protease [1]; Table I, Dose 1.100 μM) [%] | inhibition at 3.3 µM (HIV-1 protease [1]; Table I, Dose 3.300 μM) [%] | inhibition at 10 µM (HIV-1 protease [1]; Table I, Dose 10.000 μM) [%] | inhibition at 30 µM (HIV-1 protease [1]; Table I, Dose 30.000 μM) [%] | Ki (HIV-1 protease [2]; [3]) | also measured
CCCC1(CCC)CC(O)=C(C(c2cccc(NS(=O)(=O)c3cn(C)cn3)c2)C2CC2)C(=O)O1 (stereo not shown) [Example 48] | 111 | 104 | 110 | 89.3 | 111 | 105 | 0.52 nM | –
CCC[C@@]1(CCc2ccc(F)cc2)CC(O)=C([C@H](c2cccc(NS(=O)(=O)c3cn(C)cn3)c2)C(C)(C)C)C(=O)O1 (single isomer, unassigned) [Example 351, N-[3-{1(S or R)-(4-Hydroxy-5,6-dihydro-2-oxo-6(R or S)-(2-(4-fluorophenyl)ethyl)-6-propyl-2H-pyran-3-yl)-2,2-dimethyl-propyl}phenyl]-1-methyl-1H-imidazole-4-sulfonamide] | – | – | – | – | – | – | – | PROTEASE % INHIB. (HIV-1 protease [1]; [4]): < 10%; PROTEASE % INHIB. (HIV-1 protease [1]; [5]): < 10%; PROTEASE % INHIB. (HIV-1 protease [1]; [6]): 25.4%; PROTEASE % INHIB. (HIV-1 protease [1]; [7]): 55.11%; PROTEASE % INHIB. (HIV-1 protease [1]; [8]): 78.53%; PROTEASE % INHIB. (HIV-1 protease [1]; [9]): 90.55%; Ki (HIV-1 protease [2]; [10]): 558 nM
CCCC1(CCc2ccccc2)CC(O)=C(C(c2cccc(NS(=O)(=O)c3ccc(C#N)cn3)c2)C(C)(C)C)C(=O)O1 (stereo not shown) [Example 251, 5-Cyano-N-[3-(1-[5,6-dihydro-4-hydoxy-2-oxo-6-(2-phenethyl)-6-propyl-2H-pyran-3-yl]-2,2-dimethylpropyl)phenyl]-2-pyridinesulfonamide] | – | – | – | – | – | – | – | inhibition at 0.123 µM (HIV-1 protease [1]): 70.8%; inhibition at 0.37 µM (HIV-1 protease [1]): 90.6%; inhibition at 1.1 µM (HIV-1 protease [1]): 97.7%; inhibition at 3.3 µM (HIV-1 protease [1]): 94.5%; inhibition at 10 µM (HIV-1 protease [1]): 94.2%; inhibition at 30 µM (HIV-1 protease [1]): 93.2%; Ki (HIV-1 protease [2]; read-out: HIV Protease FITC Assay Ki): 1.9 nM
CC[C@H](Cc1ccccc1)c1cc(O)c(C(c2cccc(NS(=O)(=O)c3ccccn3)c2)C2CC2)c(=O)o1 (single isomer, unassigned) [Example 141, N-(3-(R or S)-{Cyclopropyl-[6-(1-(R)-ethylphenethyl)-4-hydroxy-2-oxo-2H-pyran-3-yl]-methyl}-phenyl)-2-pyridinesulfonamide] | 78.7 | 88.7 | 92 | 88.3 | 97.8 | 98.5 | 1.4 nM | –
CC(C)CC(c1cccc(NS(=O)(=O)c2cn(C)cn2)c1)c1c(O)c2c(oc1=O)CCCCCC2 (single isomer, unassigned) [Example 8, (R or S)-N-[3-1-(5,6,7,8,9,10-Hexahydro-4-hydroxy-2-oxo-2H-cycloocta[b]pyran-3-yl)-3-methylbutyl]phenyl]-1-methyl-1H-imidazole-4-sulfonamide] | 99.2 | 110 | 103 | 110 | 105 | 102 | 0.35 nM | –
CC(C)CC(c1cccc(NS(=O)(=O)c2cn(C)cn2)c1)c1c(O)c2c(oc1=O)CCCCCC2 (single isomer, unassigned) [Example 9, (R or S)-N-[3-1-(5,6,7,8,9,10-Hexahydro-4-hydroxy-2-oxo-2H-cycloocta[b]pyran-3-yl)-3-methylbutyl]phenyl]-1-methyl-1H-imidazole-4-sulfonamide] | 99.1 | 104 | 105 | 105 | 107 | 108 | 0.42 nM | –
CCCC1(CCC)CC(O)=C(C(c2cccc(NS(=O)(=O)c3ccc(F)cc3)c2)C2CC2)C(=O)O1 (stereo not shown) [Example 51, 4-Fluoro-N-[3-[1-(4-hydroxy-2-oxo-6,6-dipropyl-5,6-dihydro-2H-pyran-3-yl)-cyclopropylmethyl]-phenyl]-benzenesulfonamide] | 98.7 | 104 | 105 | 101 | 95.1 | 79.7 | 2.66 nM | –
CC[C@H](Cc1ccccc1)c1cc(O)c(C(c2cccc(NS(=O)(=O)c3nccn3C)c2)C2CC2)c(=O)o1 (single isomer, unassigned) [Example 144, N-(3-(R or S)-{Cyclopropyl-[6-(1-(R)-ethylphenethyl)-4-hydroxy-2-oxo-2H-pyran-3-yl]-methyl}-phenyl)-1-methyl-1H-imidazole-2-sulfonamide] | – | – | – | – | – | – | 1.2 nM | PROTEASE % INHIB. (HIV-1 protease [1]; Table I, Dose 0.123 μM): 80.58%; PROTEASE % INHIB. (HIV-1 protease [1]; Table I, Dose 0.370 μM): 87.39%; PROTEASE % INHIB. (HIV-1 protease [1]; Table I, Dose 1.100 μM): 93.82%; PROTEASE % INHIB. (HIV-1 protease [1]; Table I, Dose 3.300 μM): 100.01%; PROTEASE % INHIB. (HIV-1 protease [1]; Table I, Dose 10.000 μM): 98.12%; PROTEASE % INHIB. (HIV-1 protease [1]; Table I, Dose 30.000 μM): 95.88%
CC[C@@H](Cc1ccccc1)c1cc(O)c(C(c2cccc(NS(=O)(=O)c3cn(C)cn3)c2)C2CC2)c(=O)o1 (single isomer, unassigned) [Example 139, N-(3-(R or S)-{Cyclopropyl-[6-(1-(S)-ethylphenethyl)-4-hydroxy-2-oxo-2H-pyran-3-yl]-methyl}-phenyl)-1-methyl-1H-imidazole-4-sulfonamide] | 98.3 | 101 | 105 | 99.3 | 99.3 | 103 | 1.89 nM | –
CCCC1(CCC)CC(O)=C(C(c2cccc(NS(=O)(=O)c3cn(C)cn3)c2)C2CC2)C(=O)O1 (single isomer, unassigned) [Example 57] | – | – | – | – | – | – | 0.36 nM | PROTEASE % INHIB. (HIV-1 protease [1]; Table I, Dose 0.123 μM): 99.07%; PROTEASE % INHIB. (HIV-1 protease [1]; Table I, Dose 0.370 μM): 105.17%; PROTEASE % INHIB. (HIV-1 protease [1]; Table I, Dose 1.100 μM): 110.68%; PROTEASE % INHIB. (HIV-1 protease [1]; Table I, Dose 3.300 μM): 97.8%; PROTEASE % INHIB. (HIV-1 protease [1]; Table I, Dose 10.000 μM): 104.74%; PROTEASE % INHIB. (HIV-1 protease [1]; Table I, Dose 30.000 μM): 115.02%
CCC(Cc1ccccc1)c1cc(O)c(C(c2cccc(NS(=O)(=O)c3cn(C)cn3)c2)C2CC2)c(=O)o1 (stereo not shown) [Example 136, N-(3-{Cyclopropyl-[6-(1-ethylphenethyl)-4-hydroxy-2-oxo-2H-pyran-3-yl]-methyl}-phenyl)-1-methyl-1H-imidazole-4-sulfonamide] | 71.7 | 85.7 | 99 | 101 | 102 | 102 | 1.32 nM | –
CC[C@H](Cc1ccccc1)c1cc(O)c(C(c2cccc(NS(=O)(=O)c3nc4ccccc4[nH]3)c2)C2CC2)c(=O)o1 (stereo partly drawn) [Example 146, N-(3-{Cyclopropyl-[6-(1-(R)-ethylphenethyl)-4-hydroxy-2-oxo-2H-pyran-3-yl]-methyl}-phenyl)-benzimidazole-2-sulfonamide] | 68.1 | 87.4 | 103 | 103 | 103 | 102 | 0.69 nM | –
CCCC1(CCC)CC(O)=C(C(CC)c2cccc(NS(=O)(=O)c3cccc4cccnc34)c2)C(=O)O1 (single isomer, unassigned) [Example 52, (R or S)-N-[3-[1-(4-Hydroxy-2-oxo-6,6-dipropyl-5,6-dihydro-2H-pyran-3-yl)-propyl]-phenyl]-8-quinolinesulfonamide] | – | 87.3 | 92.6 | 97.4 | 97.2 | 88.9 | 1.4 nM | PROTEASE % INHIB. (HIV-1 protease [1]; Table I, Dose 0.123 μM): 85.08%
CCC(CCNC(=O)CCCCCCC(=O)N(C)CCS(=O)(=O)O)c1cc(O)c(C(c2cccc(NS(=O)(=O)c3cn(C)cn3)c2)C2CC2)c(=O)o1 (stereo not shown) [Example 110, 2-[[8-[[3-[3-[Cyclopropyl[3-[[(1-methyl-1H-imidazol-4-yl)sulfonyl]amino]phenyl]methyl]-4-hydroxy-2-oxo-2H-pyran-6-yl]pentyl]amino]-1,8-dioxooctyl]methylamino]-ethane sulfonic acid, monosodium salt] | 77.9 | 82.7 | 95.1 | 99.1 | 99.2 | 101 | 3.26 nM and 3.63 nM | –
CCC(C1=C(O)C2CCCCCC2OC1=O)c1cccc(NS(=O)(=O)c2ccc(C#N)cn2)c1 (stereo not shown) [Example 372, 5-Cyano-N-[3-[1-(2,4a,5,6,7,8,9,9a-octahydro-4-hydroxy-2-oxocyclohepta[b]pyran-3-yl)propyl]phenyl]-2-pyridinesulfonamide] | – | – | – | – | – | – | – | PROTEASE % INHIB. (HIV-1 protease [1]; [4]): 43.52%; PROTEASE % INHIB. (HIV-1 protease [1]; [5]): 86.68%; PROTEASE % INHIB. (HIV-1 protease [1]; [6]): 101.52%; PROTEASE % INHIB. (HIV-1 protease [1]; [7]): 99.56%; PROTEASE % INHIB. (HIV-1 protease [1]; [8]): 97.81%; PROTEASE % INHIB. (HIV-1 protease [1]; [9]): 106.18%; Ki (HIV-1 protease [2]; [10]): 4 nM
4-Pyridylsulfonamide, N-[4-[cyclopropyl(5,6,7,8,9,10-hexahydro-4-hydroxy-2-oxo-2H-cycloocta[b]pyran-3-yl)methyl]phenyl]- [Example 240] | – | – | – | – | – | – | 1.3 nM | PROTEASE % INHIB. (HIV-1 protease [1]; Table I, Dose 0.123 μM): 96.32%; PROTEASE % INHIB. (HIV-1 protease [1]; Table I, Dose 0.370 μM): 100.98%; PROTEASE % INHIB. (HIV-1 protease [1]; Table I, Dose 1.100 μM): 102.71%; PROTEASE % INHIB. (HIV-1 protease [1]; Table I, Dose 3.300 μM): 101.88%; PROTEASE % INHIB. (HIV-1 protease [1]; Table I, Dose 10.900 μM): 104.28%; PROTEASE % INHIB. (HIV-1 protease [1]; Table I, Dose 30.000 μM): 107.17%
